{"source": "patent US9353120B2", "about": "“Tetraaza macrocyclic compound, preparation method thereof and use thereof” (Kyungpook National University Industry-Academic Cooperation …, priority 2009, dated 2016)", "key": {"[1]": {"assay": "Electrochemical studies (cyclic voltammetry)", "type": "physicochemical", "details": "pH 7.0, scan rate 100 mV/s; for reversibility of redox reaction: cyclic voltammogram", "protocol": "Cyclic voltammetry was conducted using Biologic model SP-150 with three-electrode configuration. The system consisted of a glassy carbon (diameter=3 mm) as a working electrode, an Ag/AgCl (sat. KCl) reference electrode, and a Pt wire counter electrode. Samples were run in 0.1 M aqueous […] adjusted to pH 7.0 with glacial […] at scan rate 100 mV/s. The solutions were deoxygenated for 30 minutes with argon (Ar) prior to use and kept under Ar atmosphere during measurement."}, "[2]": {"details": "buffer", "description": "Acid decomplexation studies were performed under pseudo first-order conditions with the same concentration of 3 mmol in 5 M HCl at 90° C. Changes in the absorption maxima with time were monitored using a Shimadzu UV-Vis spectrophotometer (UV-1650PC) in thermostated cells. The decreasing absorbance at the λmax of each spectrum (Cu-PCB-TE2A: 655 nm, Cu-PCB-DO2A: 596 nm) was used to monitor the progress of the decomplexation reaction (FIGS. 24-25). Half-lives were calculated from the slopes of linear ln(absorbance) vs. time plots. Each experiment was repeated two to three times and mean values of half-lives are reported."}, "in vivo": {"assay": "in vivo", "details": "female, nude, mouse, iv, 16 uCi, total radioactivity, mean uptake in the tumor"}, "In vitro serum stability": {"assay": "In vitro serum stability", "type": "in vitro ADME, bovine", "details": "FBS, 37° C., radio-TLC up to 24 hours, then 50° C. for 1 hour", "protocol": "In vitro serum stability of ^64Cu-PCB-TE2A was tested by adding 20 μL of ^64Cu-PCB-TE2A (1-2 mM, 50 μCi) to 0.5 mL of fetal bovine serum (FBS). The solution was incubated at 37° C., and samples were analyzed by radio-TLC at 10, 30 and 60 minutes and at 2, 4, 10 and 24 hours post-addition to FBS (FIGS. 16-22). After 24 hours, the solution was incubated at 50° C. for 1 hour and once again samples were analyzed by radio-TLC (FIG. 23)."}, "[3]": {"assay": "Kinetic inertness via acid decomplexation (radio-TLC)", "type": "physicochemical", "details": "5 M and 10 M HCl, 90° C., radio-TLC at 6, 30 and 60 minutes", "protocol": "Acid decomplexation of ^64Cu-PCB-TE2A was tested by adding 20 μL of ^64Cu-PCB-TE2A (1-2 mM, 52 μCi) to 100 μL of 5 M and 10 M HCl. The solution was heated at 90° C., and samples were analyzed by radio-TLC at 6, 30 and 60 minutes post-addition to 5 M and 10 M HCl (FIGS. 10-15)."}, "[4]": {"assay": "Rat biodistribution of 64Cu complexes", "description": "(§1) The animals were sacrificed at 4 hours and 24 hours post-injection. Organs and tissues of interest were removed and weighed."}, "[5]": {"details": "in vivo", "description": "as §1"}, "U87MG tumors": {"test_system": "U87MG tumors", "assay": "MicroPET imaging", "type": "in vivo, female nude mice", "details": "U87MG tumor bearing nude mouse, 1 hour post-injection, 231 μCi", "protocol": "PET scans and image analysis were performed using a microPET R4 rodent model scanner. […] At 1 hour after the injection, the mice were anesthetized with 1-2% isoflurane, positioned porne, and imaged. The images were reconstructed by the 2-dimensional ordered-subsets expectation maximum (OSEM) algorithm. No correction was necessary for attenuation or scatter correction."}, "[6]": {"details": "Kidney, 24 hours post-injection"}, "[7]": {"details": "Muscle, 24 hours post-injection"}, "[8]": {"details": "Spleen, 24 hours post-injection"}}, "note": "Entries after “also recorded” stand apart in the source; their conditions may differ. Where two headings read alike, the source gives them in different places."}
{"molecule": "Cu-PCB-TE2A", "values": [{"measurement": "reversibility of redox reaction", "setting": "[1]", "result": "quasi-reversible redox reaction; also recorded: qitasi-rev"}, {"measurement": "Ered(V) vs Ag/AgCl (reduction potential)", "setting": "[1]", "result": "−0.66", "unit": "V"}, {"measurement": "Half-life for acid decomplexation, 5M HCl, 90° C.", "setting": "[2]", "result": "231(2)h"}]}
{"molecule": "O=C([O-])CN1CCN2CCCN(CC1)CCN(CC(=O)[O-])CC2.[Cu+2]", "note": "[Cu-PCB-DO2A]", "values": [{"measurement": "reversibility of redox reaction", "setting": "[1]", "result": "irreversible redox reaction"}, {"measurement": "reversibility of redox reaction", "setting": "[1]; listed as CU-PCB-DO2A", "result": "irrev"}, {"measurement": "Ered(V) vs Ag/AgCl (reduction potential)", "setting": "[1]", "result": "−0.69", "unit": "V"}]}
{"molecule": "N=C(N)NCCC[C@@H]1NC(=O)[C@H](CCCCNC(=S)Nc2ccc(CC3CN4CCCN(CC(=O)O)CCN(CCCN(CC(=O)O)CC4)C3)cc2)NC(=O)[C@@H](Cc2ccc(O)cc2)NC(=O)[C@H](CC(=O)O)NC(=O)CNC1=O", "note": "(stereo partly shown) [metal not drawn]", "values": [{"measurement": "tissue uptake at 1 h", "setting": "in vivo", "result": 4.76, "unit": "%ID/g"}]}
{"molecule": "O=C([O-])CN1CCCN2CCCN(CCCN(CC(=O)[O-])CC2)CC1.[64Cu+2]", "note": "[^64Cu-PCB-TE2A]", "values": [{"measurement": "in vitro serum stability", "setting": "In vitro serum stability", "result": "intact in the FBS for 24 hours without degradation"}, {"measurement": "kinetic inertness towards acid decomplexation", "setting": "[3]", "result": "unusually high kinetic inertness towards acid decomplexation"}, {"measurement": "% ID/g", "setting": "[4]; Blood, 4 hours post-injection", "result": "0.013 ± 0.003", "unit": "% ID/g"}, {"measurement": "% ID/organ", "setting": "[4]; Blood, 4 hours post-injection", "result": "0.192 ± 0.048", "unit": "% ID/organ"}, {"measurement": "% ID/g", "setting": "[4]; Blood, 24 hours post-injection", "result": "0.006 ± 0.001", "unit": "% ID/g"}, {"measurement": "% ID/organ", "setting": "[4]; Blood, 24 hours post-injection", "result": "0.108 ± 0.029", "unit": "% ID/organ"}, {"measurement": "% ID/g", "setting": "[4]; Bone, 4 hours post-injection", "result": "0.030 ± 0.004", "unit": "% ID/g"}, {"measurement": "% ID/organ", "setting": "[4]; Bone, 4 hours post-injection", "result": "0.656 ± 0.110", "unit": "% ID/organ"}, {"measurement": "% ID/g", "setting": "[4]; Bone, 24 hours post-injection", "result": "0.020 ± 0.005", "unit": "% ID/g"}, {"measurement": "% ID/organ", "setting": "[4]; Bone, 24 hours post-injection", "result": "0.569 ± 0.181", "unit": "% ID/organ"}, {"measurement": "% ID/g", "setting": "[4]; Fat, 4 hours post-injection", "result": "0.060 ± 0.013", "unit": "% ID/g"}, {"measurement": "% ID/organ", "setting": "[4]; Fat, 4 hours post-injection", "result": "1.686 ± 0.322", "unit": "% ID/organ"}, {"measurement": "% ID/g", "setting": "[4]; Fat, 24 hours post-injection", "result": "0.036 ± 0.005", "unit": "% ID/g"}, {"measurement": "% ID/organ", "setting": "[4]; Fat, 24 hours post-injection", "result": "1.328 ± 0.311", "unit": "% ID/organ"}, {"measurement": "% ID/g", "setting": "[4]; Heart, 4 hours post-injection", "result": "0.015 ± 0.001", "unit": "% ID/g"}, {"measurement": "% ID/organ", "setting": "[4]; Heart, 4 hours post-injection", "result": "0.011 ± 0.000", "unit": "% ID/organ"}, {"measurement": "% ID/g", "setting": "[4]; Heart, 24 hours post-injection", "result": "0.007 ± 0.002", "unit": "% ID/g"}, {"measurement": "% ID/organ", "setting": "[4]; Heart, 24 hours post-injection", "result": "0.006 ± 0.001", "unit": "% ID/organ"}, {"measurement": "% ID/g", "setting": "[4]; Kidney, 4 hours post-injection", "result": "0.421 ± 0.019", "unit": "% ID/g"}, {"measurement": "% ID/organ", "setting": "[4]; Kidney, 4 hours post-injection", "result": "0.794 ± 0.056", "unit": "% ID/organ"}, {"measurement": "% ID/g", "setting": "[4]; [6]", "result": "0.049 ± 0.007", "unit": "% ID/g"}, {"measurement": "% ID/organ", "setting": "[4]; [6]", "result": "0.112 ± 0.011", "unit": "% ID/organ"}, {"measurement": "% ID/g", "setting": "[4]; Liver, 4 hours post-injection", "result": "0.213 ± 0.032", "unit": "% ID/g"}, {"measurement": "% ID/organ", "setting": "[4]; Liver, 4 hours post-injection", "result": "1.679 ± 0.241", "unit": "% ID/organ"}, {"measurement": "% ID/g", "setting": "[4]; Liver, 24 hours post-injection", "result": "0.015 ± 0.001", "unit": "% ID/g"}, {"measurement": "% ID/organ", "setting": "[4]; Liver, 24 hours post-injection", "result": "0.122 ± 0.013", "unit": "% ID/organ"}, {"measurement": "% ID/g", "setting": "[4]; Lungs, 4 hours post-injection", "result": "0.022 ± 0.003", "unit": "% ID/g"}, {"measurement": "% ID/organ", "setting": "[4]; Lungs, 4 hours post-injection", "result": "0.022 ± 0.003", "unit": "% ID/organ"}, {"measurement": "% ID/g", "setting": "[4]; Lungs, 24 hours post-injection", "result": "0.013 ± 0.002", "unit": "% ID/g"}, {"measurement": "% ID/organ", "setting": "[4]; Lungs, 24 hours post-injection", "result": "0.015 ± 0.003", "unit": "% ID/organ"}, {"measurement": "% ID/g", "setting": "[4]; Muscle, 4 hours post-injection", "result": "0.033 ± 0.006", "unit": "% ID/g"}, {"measurement": "% ID/organ", "setting": "[4]; Muscle, 4 hours post-injection", "result": "2.743 ± 0.525", "unit": "% ID/organ"}, {"measurement": "% ID/g", "setting": "[4]; [7]", "result": "0.018 ± 0.006", "unit": "% ID/g"}, {"measurement": "% ID/organ", "setting": "[4]; [7]", "result": "1.987 ± 0.703", "unit": "% ID/organ"}, {"measurement": "% ID/g", "setting": "[4]; Spleen, 4 hours post-injection", "result": "0.025 ± 0.006", "unit": "% ID/g"}, {"measurement": "% ID/organ", "setting": "[4]; Spleen, 4 hours post-injection", "result": "0.013 ± 0.004", "unit": "% ID/organ"}, {"measurement": "% ID/g", "setting": "[4]; [8]", "result": "0.015 ± 0.009", "unit": "% ID/g"}, {"measurement": "% ID/organ", "setting": "[4]; [8]", "result": "0.009 ± 0.004", "unit": "% ID/organ"}, {"measurement": "% ID/g", "setting": "[4]; Tail, 4 hours post-injection", "result": "0.046 ± 0.039", "unit": "% ID/g"}, {"measurement": "% ID/organ", "setting": "[4]; Tail, 4 hours post-injection", "result": "0.252 ± 0.213", "unit": "% ID/organ"}, {"measurement": "% ID/g", "setting": "[4]; Tail, 24 hours post-injection", "result": "0.039 ± 0.014", "unit": "% ID/g"}, {"measurement": "% ID/organ", "setting": "[4]; Tail, 24 hours post-injection", "result": "0.276 ± 0.115", "unit": "% ID/organ"}, {"measurement": "clearance from the blood, liver and kidneys", "setting": "[4]; words", "result": "lowest amount of ^64Cu remaining in the blood and these tissues"}]}
{"molecule": "O=C(O)CN1CCCN2CCCN(CCCN(CC(=O)O)CC2)CC1", "note": "[PCB-TE2A, 4,11-bis(carboxymethyl)-1,4,8,11-tetraazabicyclo[6.6.3]heptadecane]", "values": [{"measurement": "Blood (rat biodistribution, cross-bridged and non-cross-bridged chelators)", "setting": "[5]; Sprague-Dawley, 24 h", "result": "0.012±0.004", "unit": "% ID/organ"}, {"measurement": "Kidney (rat biodistribution, cross-bridged and non-cross-bridged chelators)", "setting": "[5]; Sprague-Dawley, 24 h", "result": "0.064±0.009", "unit": "% ID/organ"}, {"measurement": "Liver (rat biodistribution, cross-bridged and non-cross-bridged chelators)", "setting": "[5]; Sprague-Dawley, 24 h", "result": "0.142±0.004", "unit": "% ID/organ"}]}
{"molecule": "^64Cu-PCB-TE2A-c(RGDyK)", "values": [{"measurement": "radiation uptake in the tumors (microPET)", "setting": "U87MG tumors", "result": "very high in the tumors as compared to other organs"}]}
{"molecule": "O=C([O-])CN1CCN2CCCN(CC1)CCN(CC(=O)[O-])CC2.[64Cu+2]", "note": "[^64Cu-PCB-DO2A]", "values": [{"measurement": "clearance from the blood, liver and kidneys", "setting": "[5]; rat", "result": "quickly cleared"}]}
